US7700566B2, “Mosquito control method” (priority 2006, dated 2010)

Test system: Aedes albopictus (Asian Tiger Mosquito) larvae
Test: Larval development of Aedes albopictus in sugar-containing aqueous environment
Assay type: in vivo
Conditions: single sugar
Method: The combinations and ratios of sugars experimentally tested to date have been chosen to be generally equivalent to the combinations and ratios of sugars found in natural nectars. For example, a 5% tangerine nectar equivalent solution is created by dissolving approximately 6.2 grams of sucrose, approximately 1.9 grams of dextrose (glucose) and approximately 1.9 grams of fructose in 200 ml of water. This provides a solution that is approximately 3.1% sucrose, approximately 0.95% dextrose and approximately 0.95% fructose. A 5% strawberry nectar equivalent solution is created by dissolving approximately 0.7 grams of sucrose, approximately 5.3 grams of dextrose (glucose) and approximately 4.0 grams of fructose in 200 ml of water. This provides a solution that is approximately 0.35% sucrose, approximately 2.65% dextrose and approximately 2.0% fructose. A 5% white mangrove nectar equivalent solution is created by dissolving approximately 2.2 grams of sucrose, approximately 3.2 grams of dextrose (glucose) and approximately 4.6 grams of fructose in 200 ml of water. This provides a solution that is approximately 1.1% sucrose, approximately 01.6% dextrose and approximately 2.3% fructose. The three sugars sucrose, dextrose and fructose were also tested independently in 5% aqueous solutions. Lower concentrations of 0.5%, 1.0% and above of the nectar equivalent solutions and independent sugars were also prepared and tested.
In tests using Aedes albopictus (Asian Tiger Mosquito) or Aedes aegypti (Yellow Fever Mosquito) larvae, 5% solutions of each of the tangerine, strawberry and white mangrove nectar equivalent solutions were independently produced using either phosphate buffered saline or pure water in conjunction with the sugars to create the aqueous environments. Larvae were then introduced into the 5% solution aqueous environments in varying numbers. […] In a further test, liver powder was added to the various solutions above as a nutrient to spur larval development.

Structure (SMILES): OC[C@H]1O[C@@](CO)(O[C@H]2O[C@H](CO)[C@@H](O)[C@H](O)[C@H]2O)[C@@H](O)[C@@H]1O [sucrose]
- larvae emerged as adults (0.5% solution): 77%
- larvae emerged as adults (5% solution): 13%

Structure (SMILES): O=C(CO)[C@@H](O)[C@H](O)[C@H](O)CO [fructose]
- larvae emerged as adults (0.5% solution): 100%
- larval development past the second instar stage (5% solution): no larvae developed past the second instar stage
